Like-named read-outs stand apart in the source and are kept apart here.
What was measured:
[1] = tested on: phospho-akt (Thr308); assay: phospho-akt (Thr308) MSD ELISA in PC-3 cells; type: cell-based; settings: Homo sapiens, PC-3 cells; for EC50: PC-3, 2 h, 2 hours, no serum; for inhibition at 1 µM / inhibition at 10 µM: read-out: Percent Inhibition of phospho-Akt (308) By MSD ELISA
Description: PC-3 cells were harvested by trypsin and counted. Cells were plated in coated 96-well flat bottom plates (plate 15,000 cells/well in 100 ul growth media (10% FBS, 1× pen-strep) an place in an incubator overnight.
Subject inhibitors were stocked at 50 mM, then diluted to 30 mM (4.8 μl cpd plus […] DMSO) in 100% DMSO. Three-fold dilutions were performed from 30 mM stock. (4 μl into 8 ul 100% DMSO). Aliquots of 1.0 μl of inhibitor solution were transferred into SF Medium (using deep well block).
Control wells were prepared as follows. For DMSO high controls, 1.0 μl of 100% DMSO was added into 1.0 ml SF.
MSD plates were blocked for 1 hour by adding 150 μl of Blocking Solution (3% BSA) to each well. The MSD plates were washed 4× with TBST, and 50 μl lysates were transferred to MSD plate and place on plate shaker shake at 4 degrees O/N, light shaking (speed 3.5). The plate was washed 4× with TBST.
25 μl of Ab detection solution was added to each well. The plate was sealed and incubated 1 hr RT, light shaking (speed 3.5). The plate was washed 4 times with TBST. 150 μl of Read Buffer was added (5 mls 4×MSD Read Buffer+15 mls water). Finally the plate was read immediately on the MSD plate reader.

[2] = molecular target: phosphorylated PDK1 (Homo sapiens (Human), UniProt O15530); assay: PDK1 kinase assay (coupled PDK1/AKT/FAM-crosstide, IMAP); type: biochemical; settings: 0.5 nM phosphorylated PDK1, 24 μM ATP; read-out: Inhibition of phospo-PDK1 in vitro IC50
Sequence of phosphorylated PDK1 (O15530 51-360): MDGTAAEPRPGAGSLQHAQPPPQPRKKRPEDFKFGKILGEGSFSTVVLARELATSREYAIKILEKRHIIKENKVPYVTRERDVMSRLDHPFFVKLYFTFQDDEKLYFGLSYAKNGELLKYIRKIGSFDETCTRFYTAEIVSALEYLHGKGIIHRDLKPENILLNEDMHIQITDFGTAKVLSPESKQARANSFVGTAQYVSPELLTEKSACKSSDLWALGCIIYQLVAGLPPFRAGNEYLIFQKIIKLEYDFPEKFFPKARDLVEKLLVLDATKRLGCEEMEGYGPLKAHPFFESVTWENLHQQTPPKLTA

[3] = read-out: Inhibition of P308 Akt in cells using MSD EC50
[4] = read-out: Reduction of Cellular Levels of Akt p308 By MSD ELISA (EC50 μM)

SMILES	EC50 [1, 3] [µM]	IC50 [2] [µM]	EC50 [1, 4] [µM]	inhibition at 1 µM [1] [%]	inhibition at 10 µM [1] [%]
CC(C)/C=C1/C(=O)Nc2cc(/C=C/CNC(=O)c3cccn(Cc4cc(F)c(F)c(F)c4)c3=O)ccc21 [Cpd 205]	> 5	< 0.5	–	–	–
O=C(NCc1cccc(-c2c[nH]c3ncc(-c4ccncc4)cc23)c1)c1cccn(Cc2ccc(F)c(F)c2)c1=O [Cpd 48]	< 1	< 0.5	–	–	–
O=C1Nc2cc(/C=C/CNC(=O)c3cccn(Cc4cc(F)c(F)c(F)c4)c3=O)ccc2/C1=C/c1ncc[nH]1 [Cpd 195]	< 1	< 0.5	–	–	–
O=C1Nc2cc(/C=C/CNC(=O)c3cccn(Cc4cc(F)c(F)c(F)c4)c3=O)ccc2/C1=C\c1ccccc1 [Cpd 209]	> 5	< 0.5	–	–	–
CCCNC(=O)c1cnc2[nH]cc(-c3cccc(CNC(=O)c4cccn(Cc5ccc(F)c(F)c5)c4=O)c3)c2c1 [Cpd 29]	< 1	< 0.5	< 1	–	–
O=C(NCc1cc(-c2c[nH]c3ncccc23)ccc1F)c1cccn(Cc2ccc(F)c(F)c2)c1=O [Cpd 278]	–	< 0.5	–	< 25	25 to 75
O=C(NCc1cccc(-c2c[nH]c3nccnc23)c1)c1cccn(Cc2ccc(F)c(F)c2)c1=O [Cpd 13]	1 to 5	< 0.5	–	25 to 75	> 75
O=C1Nc2cc(/C=C/CNC(=O)c3cccn(Cc4ccc(F)c(F)c4)c3=O)ccc2/C1=C/c1ncc[nH]1 [Cpd 199]	< 1	< 0.5	–	–	–
O=C(NCc1nccc(-c2c[nH]c3ncccc23)n1)c1cccn(Cc2ccc(F)c(F)c2)c1=O [Cpd 146]	> 5	< 0.5	1 to 5	–	–
O=C(NCc1cc(-c2c[nH]c3ncccc23)ccn1)c1cccn(Cc2ccc(F)c(F)c2)c1=O [Cpd 164]	< 1	< 0.5	–	–	–
O=C(NCc1cc(-c2c[nH]c3ncccc23)cc(C(F)F)n1)c1cccn(Cc2ccc(F)c(F)c2)c1=O [Cpd 208]	< 1	< 0.5	–	–	–
NC(=O)c1cnc2[nH]cc(-c3cccc(CNC(=O)c4cccn(Cc5ccc(F)c(F)c5)c4=O)c3)c2c1 [Cpd 26]	< 1	< 0.5	< 1	–	–
O=C(N[C@@H](COc1ccc2[nH]c(=O)[nH]c2c1)c1ccsc1)c1cccn(Cc2ccc(F)c(F)c2)c1=O [Cpd 190]	< 1	< 0.5	–	–	–
O=C(N[C@@H](COc1ccc2[nH]c(=O)[nH]c2c1F)c1ccccc1)c1cccn(Cc2cc(F)c(F)c(F)c2)c1=O [Cpd 177]	< 1	< 0.5	–	–	–
CNC(=O)c1cnc2[nH]cc(-c3cccc(CNC(=O)c4cccn(Cc5ccc(F)c(F)c5)c4=O)c3)c2c1 [Cpd 239]	1 to 5	< 0.5	< 1	–	–
O=C(NCc1cc(OCCN2CCOCC2)cc(-c2c[nH]c3ncccc23)c1)c1cccn(Cc2ccc(F)c(F)c2)c1=O [Cpd 56]	1 to 5	< 0.5	–	–	–
O=C(Nc1n[nH]c2ccc(-c3c[nH]c4ncccc34)cc12)c1cccn(Cc2ccc(F)c(F)c2)c1=O [Cpd 245]	1 to 5	< 0.5	–	–	–
O=C1Nc2cc(/C=C/CNC(=O)c3cc(Cl)cn(Cc4cc(F)c(F)c(F)c4)c3=O)ccc2/C1=C/c1ncc[nH]1 [Cpd 197]	< 1	< 0.5	–	–	–
CN(C)C(=O)c1cnc2[nH]cc(-c3cccc(CNC(=O)c4cccn(Cc5ccc(F)c(F)c5)c4=O)c3)c2c1 [Cpd 27]	< 1	< 0.5	< 1	–	–
O=C(NCc1cccc(-c2c[nH]c3ncccc23)n1)c1cccn(Cc2ccc(F)c(F)c2)c1=O [Cpd 4]	1 to 5	< 0.5	–	25 to 75	> 75
O=C(N[C@@H](COc1ccc2[nH]c(=O)[nH]c2c1)c1cccs1)c1cccn(Cc2ccc(F)c(F)c2)c1=O [Cpd 192]	< 1	< 0.5	–	–	–
O=C(NCc1ccnc(-c2c[nH]c3ncccc23)c1)c1cccn(Cc2ccc(F)c(F)c2)c1=O [Cpd 285]	1 to 5	< 0.5	1 to 5	–	–

SMILES	EC50 [1, 3] [µM]	IC50 [2] [µM]	EC50 [1, 4] [µM]	inhibition at 1 µM [1] [%]	inhibition at 10 µM [1] [%]
O=C(NCc1cccc(-c2c[nH]c3nccc(Cl)c23)c1)c1cccn(Cc2ccc(F)c(F)c2)c1=O [Cpd 50]	1 to 5	< 0.5	–	–	–
O=C1Nc2cc(/C=C/CNC(=O)c3cccn(Cc4cc(F)c(F)c(F)c4)c3=O)ccc2/C1=C\c1nccs1 [Cpd 202]	1 to 5	< 0.5	–	–	–
O=C1Nc2cc(/C=C/CNC(=O)c3cccn(Cc4cc(F)c(F)c(F)c4)c3=O)ccc2/C1=C/c1cccs1 [Cpd 198]	1 to 5	< 0.5	–	–	–
O=C1CCc2c(ncnc2-c2cccc(CNC(=O)c3cccn(Cc4ccc(F)c(F)c4)c3=O)c2)N1 [Cpd 240]	–	> 10	1 to 5	< 25	< 25
O=C(NCc1cccc(-c2n[nH]c3ncccc23)c1)c1cccn(Cc2ccc(F)c(F)c2)c1=O [Cpd 6]	1 to 5	< 0.5	–	25 to 75	25 to 75
O=C(NCc1noc(-c2c[nH]c3ncccc23)n1)c1cc([N+](=O)[O-])cn(Cc2cc(F)c(F)c(F)c2)c1=O [Cpd 184]	1 to 5	< 0.5	–	–	–
O=C(NCc1cc(O)cc(-c2c[nH]c3ncccc23)c1)c1cccn(Cc2ccc(F)c(F)c2)c1=O [Cpd 49]	1 to 5	< 0.5	–	–	–
CNC(=O)c1cnc2[nH]cc(-c3ccc(CNC(=O)c4cccn(Cc5ccc(F)c(F)c5)c4=O)s3)c2c1 [Cpd 40]	1 to 5	< 0.5	1 to 5	–	–
O=C(NCc1noc(-c2c[nH]c3ncccc23)n1)c1cccn(Cc2ccc(Cl)c(Cl)c2)c1=O [Cpd 312]	1 to 5	< 0.5	–	25 to 75	> 75
O=C(NCc1cc(-c2c[nH]c3ncccc23)c[n+]([O-])c1)c1cccn(Cc2ccc(F)c(F)c2)c1=O [Cpd 165]	> 5	< 0.5	–	–	–
O=C(NC(COc1ccc2[nH]c(=O)[nH]c2c1)c1ccc(F)cc1)c1cccn(Cc2ccc(F)c(F)c2)c1=O (stereo not drawn) [Cpd 147]	< 1	< 0.5	< 1	–	–
O=C(NCc1cc(-c2c[nH]c3ncccc23)cc(CO)n1)c1cccn(Cc2ccc(F)c(F)c2)c1=O [Cpd 196]	1 to 5	< 0.5	–	–	–
CC(C)Oc1cc(CNC(=O)c2cccn(Cc3ccc(F)c(F)c3)c2=O)cc(-c2c[nH]c3ncc(F)cc23)c1 [Cpd 98]	1 to 5	< 0.5	–	–	–
CCNC(=O)C[C@@H](NC(=O)c1cccn(Cc2ccc(F)c(F)c2)c1=O)c1ccc(-c2c[nH]c3ncccc23)s1 [Cpd 31]	1 to 5	< 0.5	1 to 5	–	–
Nc1ncc(-c2cccc(CNC(=O)c3cccn(Cc4ccc(F)c(F)c4)c3=O)c2)cn1 [Cpd 215]	–	> 10	–	–	–
O=C(Nc1cccc(C(=O)n2ccc3ncccc32)c1)c1cccn(Cc2ccc(F)c(F)c2)c1=O [Cpd 229]	–	> 10	–	–	–
O=C(NCc1cccc(-c2c[nH]c3ncc(-c4nnn[nH]4)cc23)c1)c1cccn(Cc2ccc(F)c(F)c2)c1=O [Cpd 246]	–	< 0.5	–	–	–
O=C(O)COc1cc(CNC(=O)c2cccn(Cc3ccc(F)c(F)c3)c2=O)cc(-c2c[nH]c3ncccc23)c1 [Cpd 61]	–	< 0.5	–	–	–
O=C(NCCCc1ccc2[nH]c(=O)[nH]c2c1)c1cccn(Cc2ccc(F)c(F)c2)c1=O [Cpd 161]	–	< 0.5	–	–	–
O=C(NCCCCc1c[nH]c2ncccc12)c1cccn(Cc2ccc(Cl)c(Cl)c2)c1=O [Cpd 269]	–	< 0.5	–	–	–
O=C(N[C@H]1CC[C@H](c2c[nH]c3ncccc32)CC1)c1cccn(Cc2ccc(F)c(F)c2)c1=O [Cpd 337]	–	> 10	–	–	–
